Experimental data reported in patent US5389621A, “Method of enhancing the anticoagulant effects of aspirin using salicylamide” (University of Medicine and Dentistry of New Jersey, priority 1994, dated 1995).
Entries after “also recorded” stand apart in the source; their conditions may differ. Where two headings read alike, the source gives them in different places.

Legend:
[1] = Tissue distribution of aspirin and its metabolites (SA, SUA, GA, DBA) by HPLC after 14C-aspirin; settings: for Aspirin level in tissues studied (plasma, lung, liver, heart, kidney): 1.5 hours after 14C-ASA alone or with SAM, low and high doses
Method: (§1) Male adult Sprague-Dawley rats (300-325 gm) obtained from Charles River Breeding Laboratory, N. Wilmington, Mass. were quarantined for one week. All animals were identified by ear punching. Food and water were provided ad libitum. The animals were maintained on rodent lab chow diet in a controlled environment with 50% humidity and 12 hour light/dark cycle.
Forty-eight rats were divided into two groups. The first group of rats was administered ASA, SAM or their combination in a dose approximately equal (w/w) to that in the commercially available combinations, e.g., BC® formula, when administered to humans, i.e., 10 and 3 mg/kg of ASA and SAM, respectively. The second group was administered double the dosage received by the first group.
The rats were anesthetized by light diethyl ether inhalation. A blood sample of nearly 3 ml was collected by cardiac puncture 1.5 hours after oral administration. The blood was transferred to chilled polyethylene tubes containing 30 μl of 50% (w/w) potassium fluoride to prevent hydrolysis of ASA. A 300 μl aliquot was pipetted in a scintillation vial to study the distribution in whole blood. The rest of the collected blood was immediately centrifuged at 1800×g for 10 minutes at 4° C. and the plasma was decanted. 100 μl of the plasma were pipetted in a scintillation vial for measurement of the total radioactivity and the rest of the plasma was stored immediately at -70° C. for later study of the distribution of the metabolites.
Liver, kidney, plasma, lung and heart were stored at -70° C. for later study of their content of the metabolites of aspirin or salicylamide using an HPLC method. Liver, kidney and plasma of the rats treated with aspirin or the combination were also investigated for the presence of salicyl glucuronide conjugates by using HPLC and acid hydrolysis assays.
A Waters HPLC system (Waters Chromatography, Division of Millipore, Milford, Mass.) was used, consisting of: Waters 680 automated gradient controller, two model 510 pumps, model U6K universal liquid chromatography injector, Lambda Max model 481 variable wavelength UV/Vis absorbance detector, Data Module 730, 3.9 mm×15 cm NOVA-PAK 4 μm silica packing steel column, C-18 Guard-Pak, Hamilton syringes of 10, 100, and 250 μl capacity (Hamilton Co., Reno, Nev.), and Milli-Q(tm) Millipore water filtration system #CDOFO 1205 (Waters, Division of Millipore, Milford, Mass.).
1--For the analysis of ASA and its metabolites in tissues: the mobile phase was 2% acetic acid/methanol, 95:5, at a flow rate of 1.4 ml/minute.
The detection wavelength was 240 nm and the sensitivity of the detector was 0.02 AUFS (Absorbance Unit Full Scale).

[2] = Excretion study: effect of salicylamide on aspirin excretion; settings: for Rate order of excretion of metabolites: first 24 hours, urine
Method: as §1
The dose of radiolabeled ASA administered was 5 μCi per rat. Rats were fasted overnight prior to the administration of the treatments.
Rats were gavaged with the treatment solution and were immediately placed in Silverman metabolic glass chambers (Bioserv, Inc., Frenchtown, N.J.), one rat per chamber. Rats were administered water ad libitum while food was withheld until 1.5 hours following treatment administration. Urine was collected at 8, 16, 24, 48 and 72 hours. Feces were collected in preweighed clean plastic cups at 24, 48 and 72 hours after dosing. The expired air was channeled through a series of activated charcoal tubes to trap any radiolabeled compound that is excreted via the lungs and the tubes were collected at the end of the study 72 hours after dosing.
The urine samples were collected and the volume was measured using a 10 ml graduated glass pipette. The urine was shaken, and 100 μl of each urine sample were pipetted in a scintillation vial with 15 ml of Aquasol-2 for radioactivity assessment. The rest of the urine was stored at -70° C. for later analysis of its content of salicylic acid (SA) and salicyluric acid (SUA), the major metabolites of ASA.
Fecal weight was determined for each time-point collection and deionized water was added to feces in a ratio of feces:water, 1:3 (w/w).
The activated charcoal was carefully emptied in small glass tubes and extracted with 1 ml of methanol and the tubes were then centrifuged at 1800×g for 15 minutes.
Urine was further studied for its content of the ASA metabolites, namely SA and SUA. Waters HPLC system (Waters Chromatography, Division of Millipore, Milford, Mass.) with 3.9 mm×15 cm NOVA-PAK 4 μm silica packing steel column, C-18 Guard-Pak, and Milli-Q(tm) Millipore water filtration system were used for the characterization of SA and SUA. An isocratic methodology was developed and the separation was optimal by a mobile phase of 2% acetic acid/methanol, 70:30, at a flow rate of 1 ml/min. and a detection wavelength of 240 nm. One hundred μl of the collected 8 and 16 hour urine samples were diluted with 4 ml of methanol/mobile phase mixture (1:1) while the dilution was only with 2 ml for the 24, 48 and 72 hour urine samples.
The fractions under the specific retentiontimes of SA and SUA were collected in scintillation vials containing 15 ml of the scintillation cocktail and the radioactivity content was counted. The retention times of SA and SUA were determined by injection of authentic standard solution. Corrections have been made for the quenching effect of the mobile phase.
Student-t test and one way analysis of variance (ANOVA) followed by Scheffe multiple range test were used where appropriate. The accepted level of significance of difference was p<0.05.

[3] = Tissue distribution of 14C-salicylamide (parent) by HPLC; format: in vivo, male Sprague-Dawley rats; settings: for concentration at 1.5 h: rat
Excerpt: Forty-eight rats were divided into two groups.
The rats were anesthetized by light diethyl ether inhalation.

[4] = oral 14C-ASA 10 mg/kg, alone or with SAM 3 mg/kg
[5] = rat, in vivo, po, 10 mg/kg, 72 h

Q: Which “SUA in lung, heart, liver and plasma” value ([1]; 14C-ASA alone and with SAM) does the source give for CC(=O)Oc1ccccc1[14C](=O)O [^14 C-ASA] here?
A: The value was “not detected; also recorded: The liver had no detectable level of SUA”.

Q: And the “Difference in kidney 14C-SUA with or without SAM” value ([1]; low or high dose)?
A: Its value is “no significant difference”.

Q: And the “Gentisic acid and 2,3-dihydroxybenzoic acid in tissues” value ([1]; low or high dose)?
A: Its value is “not detected”.

Q: What about the “14C radioactivity recovered in urine” value ([2]; 14C-ASA alone or in combination with SAM) of the same compound?
A: The value was “Almost all the ^14 C radioactivity”.

Q: And the “SA share of the radioactivity excreted in urine” value ([2]; 14C-ASA alone or with SAM)?
A: Its value is “more than 50%”.

Q: And the “SUA share of the metabolites in urine” value ([2]; 14C-ASA alone or with SAM)?
A: Its value is “approximately 15%”.

Q: What about the “14C in expired air” value ([2]; 14C-ASA or 14C-CO2) of the same compound?
A: Its value is “No radioactivity was found”.

Q: What about the “Absorption from the gut” value ([2]; 14C-ASA oral) of the same compound?
A: Its value is “essentially a complete absorption”.

Q: What about the “Rate order of excretion of metabolites” value [2] of the same compound?
A: The value was “first-order rate pattern”.

Q: And the “Urinary excretion of 14C, 0-72 hr” value [2, 4]?
A: Its value is 3055 ± 23 μg ^14 C.

Q: What about the “Urinary excretion of 14C, 8-16 hr” value [2, 4] of the same compound?
A: The value was 619 ± 124 μg ^14 C.

Q: What about the “Urinary excretion of 14C, 16-24 hr” value [2, 4] of the same compound?
A: Its value is 92 ± 26 μg ^14 C.

Q: What about the “Urinary excretion of 14C, 24-48 hr” value [2, 4] of the same compound?
A: The value was 60 ± 19 μg ^14 C.

Q: What about the “Urinary excretion of 14C, 48-72 hr” value [2, 4] of the same compound?
A: Its value is 11 ± 3 μg ^14 C.

Q: What about the “Urinary excretion of 14C, 0-8 hr” value ([2]; oral 14C-ASA 10 mg/kg, alone or with SAM 3 mg/kg, mean ± SE, n=6) of the same compound?
A: The value was 2227 ± 138 μg ^14 C.

Q: What about the “Bioavailability of 14C” value ([2]; rat, in vivo, po, 10 mg/kg) of the same compound?
A: Its value is 100%.

Q: And the “14C excreted in feces” value [2, 5]?
A: The value was 1.0 ± 0.1 percentage of the dose.

Q: What about the “14C excreted in urine” value [2, 5] of the same compound?
A: Its value is 100.2 ± 0.8 percentage of the dose.

Q: And the “Recovery of the administered dose” value [2, 5]?
A: Its value is 100%.

Q: What about the “Total Recovery of 14C” value [2, 5] of the same compound?
A: Its value is 101.7 ± 0.8 percentage of the dose.

Q: What does the source list for N[14C](=O)c1ccccc1O [^14 C-SAM]?
A: 14C-SAM in heart ([3]; 14C-SAM 3 mg/kg with or without ASA 10 mg/kg): not detected; 14C-SAM in heart ([3]; 1.5 hours, 14C-SAM 6 mg/kg alone or 14C-SAM/ASA 6/20 mg/kg): detected in the heart; concentration at 1.5 h ([3]; heart, oral 14C-SAM 6 mg/kg, alone or with ASA 20 mg/kg, ND = not detected, read-out: 14C-salicylamide in heart): 2.9 ± 1.7 ng/g; concentration at 1.5 h ([3]; kidney, oral 14C-SAM 3 mg/kg, alone or with ASA 10 mg/kg, read-out: 14C-salicylamide in kidney): 152 ± 13.4 ng/g; concentration at 1.5 h ([3]; kidney, oral 14C-SAM 6 mg/kg, alone or with ASA 20 mg/kg, read-out: 14C-salicylamide in kidney): 181 ± 18.3 ng/g; concentration at 1.5 h ([3]; liver, oral 14C-SAM 3 mg/kg, alone or with ASA 10 mg/kg, read-out: 14C-salicylamide in liver): 16.6 ± 5.3 ng/g; concentration at 1.5 h ([3]; liver, oral 14C-SAM 6 mg/kg, alone or with ASA 20 mg/kg, read-out: 14C-salicylamide in liver): 29.4 ± 3.3 ng/g; concentration at 1.5 h ([3]; lung, oral 14C-SAM 3 mg/kg, alone or with ASA 10 mg/kg, read-out: 14C-salicylamide in lung): 17.1 ± 3 ng/g; concentration at 1.5 h ([3]; lung, oral 14C-SAM 6 mg/kg, alone or with ASA 20 mg/kg, read-out: 14C-salicylamide in lung): 41.9 ± 3.9 ng/g

Q: Which results are given for NC(=O)c1ccccc1O [SAM, Salicylamide]?
A: Parent SAM in plasma ([3]; 1.5 hours, 14C-SAM alone and with ASA, low and high doses): not detected; Change of 14C-SA in kidney (low and high dose) and liver (high dose) ([1]; SAM with 14C-ASA): not markedly altered; Urinary SA, SUA and SA glucuronide, 0-8 hours ([2]; ASA coadministered with SAM vs ASA alone): higher in the urine; Effect on urinary 14C, 0-8 hour period ([2]; SAM coadministered with 14C-ASA): increased; Effect on urinary 14C, 8-28 hour period (so in the source) ([2]; SAM coadministered with 14C-ASA vs 14C-ASA alone): significantly decreased; Urinary content of SA, SUA and SA glucuronide after 0-8 hours ([2]; SAM coadministration vs 14C-ASA alone): decreased; Effect on pattern of excretion of ASA metabolites in urine ([2]; SAM with 14C-ASA, low doses): did not affect the pattern of excretion of ASA metabolites in urine

Q: For CC(=O)Oc1ccccc1C(=O)O [ASA, acetylsalicylic acid], which “Change of 14C-SAM in lung by ASA” value ([3]; low and high dose combinations) is on record?
A: The value was “significantly lower”.

Q: And the “Change of 14C-SAM in kidney by ASA” value ([3]; low dose combination)?
A: The value was “significantly reduced”.

Q: And the “Increase of 14C-SAM in liver with ASA” value ([3]; lower dose combination)?
A: The value was “about 50%”.

Q: And the “Aspirin level in tissues studied (plasma, lung, liver, heart, kidney)” value [1]?
A: The value was “not detected in the plasma”.

Q: And the “Aspirin level in tissues studied (plasma, lung, liver, heart, kidney)” value ([1]; listed as aspirin)?
A: Its value is “not detected”.

Q: And the “Rate order of excretion of metabolites” value [2]?
A: Its value is “first-order rate fashion”.
